Measurements published in patent publication US20240299380A1, “APPLICATION OF COMPOUND IN PREPARATION OF DRUG FOR TREATING MYELOFIBROSIS AND RELATED SYMPTOMS/SIGNS THEREOF, AND USE OF COMPOUND” (Betta Pharmaceuticals Co., Ltd, priority 2021, published 2024).

Tests used:
[1] = test system: SET-2 cells with JAK2V617F activation mutation; experiment: CTG cell proliferation assay, SET-2 cells; format: cell-based, human
Protocol: (§1) The effects of compound 1 on proliferation of human myeloproliferative tumor cells HEL and SET-2 cells with JAK2V617F activation mutation were tested using CTG assay in this example to evaluate half inhibitory rate (IC50) of compound 1 on HEL and SET-2 cell proliferation.
(§2) • a) HEL cells were cultured in RPMI 1640 medium containing 1% PS and 10% FBS. […] The cells were incubated in a humidified incubator with 5% carbon dioxide (CO2) at 37° C.
(§3) • a) Cells were harvested upon reaching a certain density. • b) Cells were resuspended in corresponding medium with a certain density. • c) 30 μL of cell suspension was added into each well of a 384-well plate. For HEL, the density was 1800 cells/well, and for SET-2, 2000 cells/well. • d) Cells were incubated overnight in a humidified incubator with 5% CO2 at 37° C.
(§4) The compounds were diluted with DMSO 6.67 fold from 20 mM to 3 mM, then 3-fold serial dilutions were conducted to make 10 concentrations for each compound. […]
(§5) • a) 30 μL CTG reagent (CelltiterGlo kit) was added to each well, and the plate was subjected to orbital shaking for 2 minutes, then incubated at room temperature in the dark for 30 minutes. • b) Luminescence values were obtained using Envision.
(§6) IC50 (the half maximal inhibitory concentration) was calculated with GraphPad Prism 8 software and following nonlinear fitting formula: […]

[2] = test system: IL-6 secretion in THP-1 cells; experiment: IL-6 ELISA in THP-1 cell supernatants following LPS stimulation; format: cell-based, Human
Protocol: The Human IL-6 Valukine ELISA kit (purchased from R&D) was used to measure the IL-6 content in the cell supernatants by ELISA method in this example. The experimental procedures shown below were conducted to determine the effect of compound 1 on IL-6 secretion in THP-1 cell supernatants following LPS stimulation.
THP-1 cells were cultured in RPMI 1640 medium containing 1% PS and 10% FBS and 2-Mercaptoethanol (IX). The cells were incubated in a humidified incubator with 5% carbon dioxide (CO2) at 37° C. […]
• a) 50 μL medium was added to each well. • b) 100 μL CTG reagent (CelltiterGlo kit) was added to each well, and the plate was placed on a orbital shaker for 2 minutes, then placed at room temperature in dark conditions for 30 minutes, and then transferred to CTG plate. • c) The luminescence values were recorded with Envision.
IC50 (The half maximal inhibitory concentration) was calculated using GraphPad Prism 8 software with the following nonlinear fitting formula: […]
[formula] • b) IL-6 detection: X: Log value of Compound concentration, Y: IL-6 concentration (pg/mL) • IL-6 concentration was calculated based on the linear equation of standard dilution concentration and wavelength detection. […]

[3] = test system: HEL cells with JAK2V617F activation mutation; experiment: CTG cell proliferation assay, HEL cells; format: cell-based, human
Protocol: as §1, §2, §3, §4, §5, §6

[4] = test system: NF-κB transcriptional activity; experiment: NF-κB reporter gene assay in HEK293 cells; format: cell-based
Protocol: In present example, reporter gene assay was used to determine the inhibitory effect of compound 1 on NF-κB transcriptional activity in HEK293 cells, to evaluate the effect of the compound on NF-κB transcriptional activity.
• a) All compounds were 3-fold serial diluted from 10 mM for 10 doses in DMSO. • b) The positive compound CDDO-Me was 3-fold serial diluted from 10 mM for 10 doses in DMSO. • c) 1000×positive control ([…]) and 1000×negative control (100% DMSO) were prepared. • d) Compounds plate was sealed and shaked for 5 minutes.
• a) All cells were cultured following ATCC recommendations. […] Digestion was terminated with complete culture medium, and the cells were collected and counted. • d) A total of 6*10^6 HEK293T cells were seeded into a 100 mm cell culture dish. • e) The cells were then incubated overnight in a 5% CO2 incubator. […]
• a) The Britelite plus reagent were allowed to reach room temperature. • b) The 384-well assay plates (prepared at Step 3) were allowed to reach room temperature. • c) 25 μL Britelite plus reagent was added to each well of 384-well assay plate. • d) Luminescence values were recorded with Envision.
[formula] • RLU: relative luminescence units • RLUPositive: The average luminescence value of the blank controls. • RLUvehicle: The average luminescence value of the negative controls. • 5.2 IC50 calculating and compound dose-response curves fitting: […]

[5] = Homo sapiens, 72 h, CTG, read-out: IC50 for cell proliferation inhibition

For `Cc1nc2ncc(-c3cn(C)c(=O)c4[nH]ccc34)nc2n1Cc1ccc(C(F)(F)F)cc1` [Compound 1, 6-methyl-4-(2-methyl-1-(4-(trifluoromethyl)benzyl)-1H-imidazo[4,5-b]pyrazin-6-yl)-1H-py rrolo[2,3-c]pyridin-7(6H)-one], the “inhibitory effect on proliferation of SET-2 cells (in words)” value [1] was “good inhibitory effect”, the IC50 [1, 5] was 0.104 µM and the IC50 ([2]; Homo sapiens, THP-1 cells, LPS 4 μg/mL, read-out: IC50 for inhibition of IL-6 secretion in THP-1 cells) was 0.0224 µM. The “inhibition of IL-6 secretion (in words)” value ([2]; THP1 monocytes, LPS) was “significantly inhibited”, the “inhibitory effect on proliferation of HEL cells (in words)” value [3] was “good inhibitory effect” and the IC50 [3, 5] was 0.154 µM. For the same molecule, the “inhibition of the transcriptional activity of NF-κB (in words)” value ([4]; HEK293 cells stably transfected with the NF-κB reporter gene) was “significantly inhibited” and the IC50 ([4]; Homo sapiens, HEK293 cells with NF-κB reporter gene, 8 ng/ml TNFα, 16-20 h, read-out: IC50 for the inhibition of NF-κB transcriptional activity) was 0.148 µM.
